The values that follow come from patent US20260091026A1, “METHODS OF TREATING INFLAMMATORY DISEASES” (INTERLINE THERAPEUTICS, INC., priority 2023, published 2026).

The IC50 is the midpoint of a concentration-inhibition curve.

Assay [1] concerns THP1-Dual cells, NF-κB pathway (SEAP). Briefly: THP-1 Dual cell SEAP assay (L18-MDP stimulated). The assay is classed as cell-based. The note with it: Homo sapiens, 10 ng/mL L18-MDP, 20-24 h, SEAP readout, read-out: IFNγ THP1 IC50. The protocol: THP1-Dual™ cells (InvivoGen Cat #thpd-nfis) allow simultaneous assessment of the NF-κB pathway, by monitoring the activity of secreted embryonic alkaline phosphatase (SEAP) as well as the IRF pathway, by assessing the activity of a secreted luciferase (Lucia). Cells were cultured according to manufacturers' recommendations. For the assay, cell concentration was adjusted to 7.14×10^5 cells/mL in assay media (RPMI 1640, 2 mM L-Glutamine, 25 mM HEPES, 10% fetal bovine serum (heat-inactivated for 30 min at 56° C.), Pen-Strep (100 U/mL)) and 35 μL of cell suspension (˜25,000 cells) per well were added to a flat bottom 384-well plate (white opaque). Plate was centrifuged at 300 g for 2 min, compounds were added in serial dilution series according to the plate layout (volumes ˜500 nL-0.0152 nL) and plate was incubated at 37° C. in 5% CO2 for 30 min. Using assay media, a L18-MDP stock solution, that results in a final concentration of 10 ng/mL L18-MDP in each well when adding 15 μL to each well, was prepared. 15 μL of L18-MDP stock solution was added to each well, while 15 μL of assay media was added to the negative control wells. Plates were subsequently incubated at 37° C. in 5% CO2 overnight (20-24 h).
For the SEAP assay: without disturbing the cells at the bottom of the well, 15 μL supernatant was transferred to a clear 384-well flat bottom plate and 35 μL QUANTI-Blue Solution per well was added. Following a 2 h incubation at 37° C., the optical density (OD) was measured at 620-655 nm using a microplate reader (PheraStar FS microplate reader with protocol for OD 620-655 nm).
Values of media-only wells were subtracted and % inhibition for each compound concentration relative to the DMSO/L18-MDP-treated controls was calculated. Inhibition values+/−SD were fitted by non-linear regression using Prism software (GraphPad PRISM Software) to calculate IC50 values.

The target of another assay is T1, RIPK2 (KD)/XIAP (BIR2) (Homo sapiens, UniProt O43353).
T1 construct: made in house; host or cells: baculovirus-infected Sf9 cells
T1 sequence (O43353 1-310): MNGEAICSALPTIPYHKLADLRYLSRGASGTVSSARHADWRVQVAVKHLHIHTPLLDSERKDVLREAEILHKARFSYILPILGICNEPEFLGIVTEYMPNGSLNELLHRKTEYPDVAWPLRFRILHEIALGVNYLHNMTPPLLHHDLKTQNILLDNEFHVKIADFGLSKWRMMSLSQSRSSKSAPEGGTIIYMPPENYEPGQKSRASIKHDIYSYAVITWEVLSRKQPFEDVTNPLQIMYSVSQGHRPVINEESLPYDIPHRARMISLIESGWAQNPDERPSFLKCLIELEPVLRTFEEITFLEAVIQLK
The assay can be described thus: RIPK2-XIAP binding competition PPI assay (TR-FRET). Conditions: for Emax: 50 nM of GSK583 = -100% activity, read-out: PPI Amax; for IC50: GST-RIPK2 / His-XIAP (BIR2)-avi, 120 min at 23° C. The text has this:
The ability of selected compounds of Formula (I) to inhibit the binding of an His-XIAP (BIR2)-avi fusion protein to a GST-RIPK2 fusion protein was quantified employing the TR-FRET-based competition assay as described in the following paragraphs.
Recombinant fusion protein of N-terminal Glutathione-S-Transferase (GST) and a fragment of human RIPK2 (amino acids 1-310 of accession number 043353), expressed in baculovirus infected Sf9 cells, purified via glutathione affinity chromatography, was used as GST-RIPK2 fusion protein. Recombinant fusion protein of N-terminal 6xHistidine (His), a fragment of human XIAP (amino acids 152-231 of accession number P98170), and C-terminal avi tag, expressed in baculovirus infected Sf9 cells, purified via Nickel NTA affinity chromatography, was used as the His-XIAP (BIR2)-avi fusion protein.
For the assay, a working solution of 1 nM GST-RIPK2, 25 nM His-XIAP (BIR2)-avi, 6 nM Anti-His-XL665 […] (Revvity Catalogue No. 61HISXLB), and 0.5 nM Anti-GST-Tb(Revvity Catalogue No. 61GSTTLB) in 25 mM Tris-HCl 7.5, 0.5 mM ethylene glycol-bis(2-aminoethylether)-N,N,N′,N′-tetraacetic acid (EGTA), 10 mM magnesium chloride (MgCl2), 2.5 mM dithiothreitol (DTT), 0.01% (w/v) bovine serum albumin (BSA), 0.005% (w/v) Pluronic F-127 (Sigma), 0.5 mM sodium ortho-vanadate, 5 mM-Glycerophosphate disodium salt hydrate (BGP) was prepared. 50 nL of a 100-fold concentrated solution of each test compound in DMSO was dispensed via acoustic dispensing into a white low volume 384-well microtiter plate (Perkin Elmer Catalogue No. 6008280). Subsequently, 5 μL of the assay working solution were added.
The resulting mixture was incubated 120 min at 23° C. Subsequently, the amount of complex formed by the GST-RIPK2, XIAP (BIR2)-avi, Anti-His-XL665, and Anti-GST-Tb was evaluated by measurement of the resonance energy transfer from the Tb-cryptate to the XL665. Therefore, the fluorescence emissions at 520 nm and 665 nm after excitation at 337 nm were measured in a TR-FRET reader, e.g. a Pherastar FS(BMG Labtechnologies, Offenburg, Germany) or an Envision (PerkinElmer). The ratio of the emissions at 665 nm and at 520 nm was taken as the measure of the amount of the complex. The data were normalized (assay reaction without inhibitor=0% activity, 50 nM of GSK583=−100% activity).

Molecules are shown by their SMILES. Some results are limits rather than exact numbers.

With `COc1cc2ncc(-c3cc(C(=O)NCc4cnn5ccccc45)n(C)n3)n2cc1S(=O)(=O)C(C)(C)C` [Example 17, 3-(6-(tert-butylsulfonyl)-7-methoxyimidazo[1,2-a]pyridin-3-yl)-1-methyl-N-(pyrazolo[1,5-a]pyridin-3-ylmethyl)-1H-pyrazole-5-carboxamide], the IC50 is above 2.5 µM in assay [1] and above 1 µM at RIPK2 (KD)/XIAP (BIR2). Moreover, the Emax on RIPK2 (KD)/XIAP (BIR2) lay within 55 to 80%.
In the case of `COc1cc2ncc(-c3cc(C(=O)NCc4n[nH]c5cccnc45)n(C)n3)n2cc1S(=O)(=O)C(C)(C)C` [Example 18, N-((1H-pyrazolo[4,3-b]pyridin-3-yl)methyl)-3-(6-(tert-butylsulfonyl)-7-methoxyimidazo[1,2-a]pyridin-3-yl)-1-methyl-1H-pyrazole-5-carboxamide], the IC50 in assay [1] was 0.5 to 2.5 µM; at RIPK2 (KD)/XIAP (BIR2), 0.01 to 0.1 µM. For the same compound, at RIPK2 (KD)/XIAP (BIR2), the Emax was at least 80%.
As to `COc1cc2ncc(-c3cc(C(=O)NCc4n[nH]c5cccc(F)c45)n(C)n3)n2cc1S(=O)(=O)C(C)(C)C` [Example 19, 3-(6-(tert-butylsulfonyl)-7-methoxyimidazo[1,2-a]pyridin-3-yl)-N-((4-fluoro-1H-indazol-3-yl)methyl)-1-methyl-1H-pyrazole-5-carboxamide], the IC50 in assay [1] lay in the range of 0.1 to 0.5 µM. In addition, at RIPK2 (KD)/XIAP (BIR2), the Emax is at least 80% and the IC50 is below 0.01 µM.
In the same order, the values of `COc1cc2ncc(-c3cc(C(=O)NCc4cccc5ccnn45)n(C)n3)n2cc1S(=O)(=O)C(C)(C)C` [Example 20, 3-(6-(tert-butylsulfonyl)-7-methoxyimidazo[1,2-a]pyridin-3-yl)-1-methyl-N-(pyrazolo[1,5-a]pyridin-7-ylmethyl)-1H-pyrazole-5-carboxamide] are above 2.5 µM, at least 80% and 0.1 to 1 µM.
The matching figures for `COc1cc2ncc(-c3cc(C(=O)NCc4cccn5ccnc45)n(C)n3)n2cc1S(=O)(=O)C(C)(C)C` [Example 21, 3-(6-(tert-butylsulfonyl)-7-methoxyimidazo[1,2-a]pyridin-3-yl)-N-(imidazo[1,2-a]pyridin-8-ylmethyl)-1-methyl-1H-pyrazole-5-carboxamide]: above 2.5 µM, at least 80% and 0.1 to 1 µM.
Regarding `COc1cc2ncc(-c3cc(C(=O)NCc4cn5ccccc5n4)n(C)n3)n2cc1S(=O)(=O)C(C)(C)C` [Example 22, 3-(6-(tert-butylsulfonyl)-7-methoxyimidazo[1,2-a]pyridin-3-yl)-N-(imidazo[1,2-a]pyridin-2-ylmethyl)-1-methyl-1H-pyrazole-5-carboxamide], the IC50 in assay [1] is above 2.5 µM. At RIPK2 (KD)/XIAP (BIR2), the Emax was at most 30% and the half-maximal inhibitory concentration (IC50) was above 1 µM.
In the same order, the values of `COc1cc2ncc(-c3cc(C(=O)NCc4cc5ccccn5n4)n(C)n3)n2cc1S(=O)(=O)C(C)(C)C` [Example 23, 3-(6-(tert-butylsulfonyl)-7-methoxyimidazo[1,2-a]pyridin-3-yl)-1-methyl-N-(pyrazolo[1,5-a]pyridin-2-ylmethyl)-1H-pyrazole-5-carboxamide] are 0.5 to 2.5 µM, at most 30% and above 1 µM.
The matching figures for `COc1cc2ncc(-c3cc(C(=O)NCc4ccn(C)n4)n(C)n3)n2cc1S(=O)(=O)C(C)(C)C` [Example 24, 3-(6-(tert-butylsulfonyl)-7-methoxyimidazo[1,2-a]pyridin-3-yl)-1-methyl-N-((1-methyl-1H-pyrazol-3-yl)methyl)-1H-pyrazole-5-carboxamide]: 0.5 to 2.5 µM, at least 80% and 0.1 to 1 µM.
Turning to `COc1cc2ncc(-c3cc(C(=O)NCc4cnn(C)c4)n(C)n3)n2cc1S(=O)(=O)C(C)(C)C` [Example 25, 3-(6-(tert-butylsulfonyl)-7-methoxyimidazo[1,2-a]pyridin-3-yl)-1-methyl-N-((1-methyl-1H-pyrazol-4-yl)methyl)-1H-pyrazole-5-carboxamide], the values for the IC50 (in assay [1]; at RIPK2 (KD)/XIAP (BIR2)) were above 2.5 µM and above 1 µM, respectively. Moreover, the Emax on RIPK2 (KD)/XIAP (BIR2) is at most 30%.
`COc1cc2ncc(-c3cc(C(=O)NCc4ccccn4)n(C)n3)n2cc1S(=O)(=O)C(C)(C)C` [Example 26, 3-(6-(tert-butylsulfonyl)-7-methoxyimidazo[1,2-a]pyridin-3-yl)-1-methyl-N-(pyridin-2-ylmethyl)-1H-pyrazole-5-carboxamide]: the IC50 in assay [1] is 0.5 to 2.5 µM. On RIPK2 (KD)/XIAP (BIR2), the Emax was at least 80% and the half-inhibitory concentration (IC50) fell in the range of 0.1 to 1 µM.
Regarding `COc1cc2ncc(-c3cc(C(=O)NCc4cccnc4)n(C)n3)n2cc1S(=O)(=O)C(C)(C)C` [Example 27, 3-(6-(tert-butylsulfonyl)-7-methoxyimidazo[1,2-a]pyridin-3-yl)-1-methyl-N-(pyridin-3-ylmethyl)-1H-pyrazole-5-carboxamide], the IC50 in assay [1] is above 2.5 µM. Moreover, on RIPK2 (KD)/XIAP (BIR2), the Emax is 55 to 80% and the IC50 was above 1 µM.
On to `COc1cc2ncc(-c3cc(C(=O)NCc4ccccc4)n(C)n3)n2cc1S(=O)(=O)C(C)(C)C` [Example 28, N-benzyl-3-(6-(tert-butylsulfonyl)-7-methoxyimidazo[1,2-a]pyridin-3-yl)-1-methyl-1H-pyrazole-5-carboxamide], for which the IC50 in assay [1] was in the range of 0.5 to 2.5 µM; on RIPK2 (KD)/XIAP (BIR2), 0.1 to 1 µM. For the same compound, the Emax at RIPK2 (KD)/XIAP (BIR2) was at least 80%.
On to `COc1cc2ncc(-c3cc(C(=O)NCc4ccncc4)n(C)n3)n2cc1S(=O)(=O)C(C)(C)C` [Example 29, 3-(6-(tert-butylsulfonyl)-7-methoxyimidazo[1,2-a]pyridin-3-yl)-1-methyl-N-(pyridin-4-ylmethyl)-1H-pyrazole-5-carboxamide], for which the IC50 in assay [1] is above 2.5 µM. In addition, on RIPK2 (KD)/XIAP (BIR2), the Emax is at most 30% and the IC50 was above 1 µM.
The matching figures for `C[C@@H](NC(=O)c1cc(-c2cnc3cc(OCCO)c(S(=O)(=O)C(C)(C)C)cn23)nn1C)c1ccccc1` [Example 32, (R)-3-(6-(tert-butylsulfonyl)-7-(2-hydroxyethoxy)imidazo[1,2-a]pyridin-3-yl)-1-methyl-N-(1-phenylethyl)-1H-pyrazole-5-carboxamide]: below 0.1 µM, at least 80% and below 0.01 µM.
On to `COc1cc2ncc(-c3cc(C(=O)N[C@H](C)C4CC4)n(C)n3)n2cc1S(=O)(=O)C(C)(C)C` [Example 35, (R)-3-(6-(tert-butylsulfonyl)-7-methoxyimidazo[1,2-a]pyridin-3-yl)-N-(1-cyclopropylethyl)-1-methyl-1H-pyrazole-5-carboxamide], for which the half-maximal inhibitory concentration (IC50) in assay [1] was above 2.5 µM. On RIPK2 (KD)/XIAP (BIR2), the Emax is 30 to 55% and the half-inhibitory concentration (IC50) was above 1 µM.
